Values after ≈ are worked out from the molar mass of the structure shown. Active and inactive are the calls of the source. The rule behind the calls is not given here. Peptide text beside a SMILES is read from it. * marks the point of attachment. Lauroyl = CCCCCCCCCCCC(=O)*; Octanoyl = CCCCCCCC(=O)*
Key:
Staphylococcus aureus [1] = test: Antibacterial activity against methicillin resistant Staphylococcus aureus infected in male BALB/c mouse model of skin wound infection assessed as appearance of intact structure of stratum corneum at 2 mg/kg, ip measured after 10 days post infection; type: functional, organism-based; details: time 10.0 day
Staphylococcus aureus [2] = test: Induction of morphological changes in Staphylococcus aureus assessed as cell foaming at 2 times MIC measured after 30 mins by SEM analysis; type: functional, organism-based
Staphylococcus aureus [3] = test: Antibacterial activity against Staphylococcus aureus assessed as reduction in survival bacterial growth in presence of <=2 ug/ml chymotrypsin measured after1 hr by absorbance based analysis; type: functional, organism-based; details: time 1.0 hrs
Staphylococcus aureus [4] = test: Synergistic antibacterial activity against Staphylococcus aureus 113 measured after 18 hrs in presence of streptomycin by absorbance based analysis; type: functional, organism-based
[5] = Acute toxicity in male BALB/c mouse assessed mouse survival at 100 to 130 mg/kg, ip measured within 3 hrs; type: organism-based; details: in vivo, dose 100-130 mg/kg
Escherichia coli [6] = test: Antibacterial activity against Escherichia coli 850 assessed as reduction in bacterial growth incubated for 18 to 24 hrs by broth microdilution method; type: functional; details: time 18-24 hrs
Cell membrane [7] = test: Induction of outer membrane permeabilization in Escherichia coli assessed as increase in fluorescence intensity at 2 to 4 times MIC measured for 10 mins by fluorescence based NPN uptake assay
Staphylococcus aureus [8] = test: Synergistic antibacterial activity against Staphylococcus aureus 25923 measured after 18 hrs in presence of polymyxin B by absorbance based analysis; type: functional, organism-based
Staphylococcus aureus [9] = test: Synergistic antibacterial activity against methicillin-resistant Staphylococcus aureus measured after 18 hrs in presence of cephalothin by absorbance based analysis; type: functional, organism-based
Escherichia coli [10] = test: Bactericidal activity against Escherichia coli 25922 assessed as eradication of bacteria at 2 times MIC measured within 1 hr by time-kill assay; type: functional, organism-based
Staphylococcus aureus [11] = test: Antibacterial activity against Staphylococcus aureus 794 assessed as reduction in bacterial growth incubated for 18 to 24 hrs by broth microdilution method; type: functional; details: time 18-24 hrs
Klebsiella pneumoniae [12] = test: Induction of morphological changes in Klebsiella pneumoniae assessed as cell adhesion at 2 times MIC measured after 120 mins by SEM analysis; type: functional, organism-based
Staphylococcus aureus [13] = test: Antibacterial activity against Staphylococcus aureus 25923 at sub-MIC concentration measured after 15 passages in presence of rifampin; type: functional, organism-based
Escherichia coli [14] = test: Antibacterial activity against Escherichia coli assessed as reduction in survival bacterial growth in presence of <=2 ug/ml chymotrypsin measured after1 hr by absorbance based analysis; type: functional, organism-based; details: time 1.0 hrs
Staphylococcus aureus [15] = test: Additive antibacterial activity against Staphylococcus aureus 113 assessed as fractional inhibitory in presence of streptomycin by checker board assay; type: functional
Staphylococcus aureus [16] = test: Induction of cell membrane disruption in Staphylococcus aureus assessed as PI uptake at 2 to 4 times MIC measured after 120 mins by PI staining based flow cytometry analysis (Rvb =<10 %); type: functional; details: 2 h
Staphylococcus aureus [17] = test: Induction of morphological changes in Staphylococcus aureus assessed as cell aggregation at 2 times MIC measured after 30 mins by SEM analysis; type: functional, organism-based
Staphylococcus aureus [18] = test: Antibacterial activity against Staphylococcus aureus 25923 at sub-MIC concentration measured after 15 passages; type: functional, organism-based
[19] = Acute toxicity in male BALB/c mouse assessed lethal dose administered as ip dose measured for 7 days; type: organism-based; details: in vivo, time 7 day
Staphylococcus aureus [20] = test: Synergistic antibacterial activity against Staphylococcus aureus 25923 measured after 18 hrs in presence of cephalothin by absorbance based analysis; type: functional, organism-based
Klebsiella pneumoniae [21] = test: Antibacterial activity against Klebsiella pneumoniae ATCC 700603 infected in male BALB/c mouse lung infection model assessed as reduction in bacterial load at 5 mg/kg, ip measured after 6 to 36 hrs (reference value: 1.77 10^6CFU/mg); type: functional; details: time 6-36 hrs
Escherichia coli [22] = test: Antibacterial activity against Escherichia coli assessed as reduction in survival bacterial growth by measuring fold change in presence of ZnCl2 measured after 18 to 24 hrs; type: functional; details: time 18-24 hrs
Staphylococcus aureus [23] = test: Antibacterial activity against Staphylococcus aureus assessed as reduction in survival bacterial growth by measuring fold change in presence of FeCl3 measured after 18 to 24 hrs; type: functional; details: time 18-24 hrs
Staphylococcus aureus [24] = test: Synergistic antibacterial activity against Staphylococcus aureus 113 measured after 18 hrs in presence of cephalothin by absorbance based analysis; type: functional, organism-based
Staphylococcus aureus [25] = test: Antibacterial activity against methicillin-resistant Staphylococcus aureus ATCC 33591 assessed as reduction in bacterial growth incubated for 18 to 24 hrs by broth microdilution method; type: functional; details: time 18-24 hrs
Acinetobacter baumannii [26] = test: Antibacterial activity against Acinetobacter baumannii ATCC 19606 assessed as reduction in bacterial growth incubated for 18 to 24 hrs by broth microdilution method; type: functional; details: time 18-24 hrs
Klebsiella pneumoniae [27] = test: Antibacterial activity against Klebsiella pneumoniae ATCC 700603 assessed as reduction in bacterial growth incubated for 18 to 24 hrs by broth microdilution method; type: functional; details: time 18-24 hrs
[28] = tested on: Staphylococcus epidermidis; test: Antibacterial activity against Staphylococcus epidermidis ATCC 12228 assessed as reduction in bacterial growth incubated for 18 to 24 hrs by broth microdilution method; type: functional; details: time 18-24 hrs
Staphylococcus aureus [29] = test: Synergistic antibacterial activity against Staphylococcus aureus 25923 assessed as fractional inhibitory in presence of streptomycin by checker board assay; type: functional
Staphylococcus aureus [30] = test: Synergistic antibacterial activity against Staphylococcus aureus 113 measured after 18 hrs in presence of polymyxin B by absorbance based analysis; type: functional, organism-based
Klebsiella pneumoniae [31] = test: Antibacterial activity against Klebsiella pneumoniae ATCC 700603 infected in male BALB/c mouse lung infection model assessed as expansion of lung alveoli at 5 mg/kg, ip measured after 6 to 36 hrs; type: functional, organism-based; details: time 6-36 hrs
Acinetobacter baumannii [32] = test: Antibacterial activity against Acinetobacter baumannii 92359 assessed as reduction in bacterial growth incubated for 18 to 24 hrs by broth microdilution method; type: functional; details: time 18-24 hrs
Klebsiella pneumoniae [33] = test: Induction of morphological changes in Klebsiella pneumoniae assessed as cell contraction at 2 times MIC measured after 120 mins by SEM analysis; type: functional, organism-based
Cell membrane [34] = test: Induction of cytoplasmic membrane depolarization in Escherichia coli assessed as increase in fluorescence intensity at 4 times MIC measured for 10 mins by DiSC3-5 dye based fluorescence assay
Staphylococcus aureus [35] = test: Antibacterial activity against Staphylococcus aureus assessed as reduction in survival bacterial growth in presence of NaCl measured after 18 to 24 hrs (reference value: 4 microM); type: functional; details: time 18-24 hrs
Klebsiella pneumoniae [36] = test: Induction of morphological changes in Klebsiella pneumoniae assessed as cell aggregation at 2 times MIC measured after 120 mins by SEM analysis; type: functional, organism-based
Staphylococcus aureus [37] = test: Antibacterial activity against Staphylococcus aureus assessed as reduction in survival bacterial growth in presence of <= 2 ug/ml trypsin measured after1 hr by absorbance based analysis; type: functional, organism-based; details: time 1.0 hrs
Staphylococcus aureus [38] = test: Synergistic antibacterial activity against Staphylococcus aureus 25923 assessed as fractional inhibitory in presence of polymyxin B by checker board assay; type: functional
Escherichia coli [39] = test: Antibacterial activity against Escherichia coli 780 assessed as reduction in bacterial growth incubated for 18 to 24 hrs by broth microdilution method; type: functional; details: time 18-24 hrs
Staphylococcus aureus [40] = test: Antibacterial activity against Staphylococcus aureus assessed as reduction in survival bacterial growth in presence of <=0.2 ug/ml trypsin measured after1 hr by absorbance based analysis; type: functional, organism-based; details: time 1.0 hrs
Cell membrane [41] = test: Induction of cytoplasmic membrane depolarization in Staphylococcus aureus assessed as increase in fluorescence intensity at 0.5 to 4 times MIC measured for 1 mins by DiSC3-5 dye based fluorescence assay

For `CCCCCCCCCCCC(=O)N[C@@H](CCCCN)C(=O)N[C@@H](CCCCN)C(=O)N[C@@H](Cc1c[nH]c2ccccc12)C(=O)N[C@@H](Cc1c[nH]c2ccccc12)C(N)=O` (Lauroyl-KKWW-NH2), the Activity (Staphylococcus aureus [1]) was “Active”, the Activity (Staphylococcus aureus [2]) was “Active” and the Activity (Staphylococcus aureus [3]) was “Active”. For the same compound, the Activity (Staphylococcus aureus [4]) was “Active”, the Activity [5] was “Toxic” and the MIC (Escherichia coli [6]) was 8 µM (≈ 6.62 µg/mL). For the same compound, the Activity (Cell membrane [7]) was “Active”, the Activity (Staphylococcus aureus [8]) was “Active” and the Activity (Staphylococcus aureus [9]) was “Active”. The Activity (Escherichia coli [10]) was “Active”, the MIC (Staphylococcus aureus [11]) was 4 µM (≈ 3.31 µg/mL) and the Activity (Klebsiella pneumoniae [12]) was “Active; Compound Showed More Pronounced Effect Compared To 30 Mins Incubation Time”. The Activity (Staphylococcus aureus [13]) was “Active”, the Activity (Escherichia coli [14]) was “Active” and the “fractional inhibitory concentration index (FICI)” value (Staphylococcus aureus [15]) was 0.562. The Activity (Staphylococcus aureus [16]) was 100%, the Activity (Staphylococcus aureus [17]) was “Active” and the Activity (Staphylococcus aureus [18]) was “inactive”. For the same compound, the LD50 at 168 h [19] was 114 mg/kg, the Activity (Staphylococcus aureus [20]) was “Active” and the Activity (Klebsiella pneumoniae [21]) was 2.4 10^4CFU/mg. For the same compound, the “fold change (FC)” value (Escherichia coli [22]) was 2, the “fold change (FC)” value (Staphylococcus aureus [23]) was 2 and the Activity (Staphylococcus aureus [24]) was “Active”. It also gave an MIC (Staphylococcus aureus [25]) of 4 µM (≈ 3.31 µg/mL), an MIC (Acinetobacter baumannii [26]) of 16 µM (≈ 13.2 µg/mL) and an MIC (Klebsiella pneumoniae [27]) of 16 µM (≈ 13.2 µg/mL). For the same compound, the MIC [28] was 4 µM (≈ 3.31 µg/mL), the “fractional inhibitory concentration index (FICI)” value (Staphylococcus aureus [29]) was 0.187 and the Activity (Staphylococcus aureus [30]) was “Active”. For the same compound, the Activity (Klebsiella pneumoniae [31]) was “Active”, the MIC (Acinetobacter baumannii [32]) was 16 µM (≈ 13.2 µg/mL) and the Activity (Klebsiella pneumoniae [33]) was “Active; Compound Showed More Pronounced Effect Compared To 30 Mins Incubation Time”. For the same compound, the Activity (Cell membrane [34]) was “Active; Compound Showed Pronounced Effect Than Quality Control Polymyxin B”, the MIC (Staphylococcus aureus [35]) was 4 µM and the Activity (Klebsiella pneumoniae [36]) was “Active; Compound Showed More Pronounced Effect Compared To 30 Mins Incubation Time”. For the same compound, the Activity (Staphylococcus aureus [37]) was “Active”, the “fractional inhibitory concentration index (FICI)” value (Staphylococcus aureus [38]) was 0.5 and the MIC (Escherichia coli [39]) was 8 µM (≈ 6.62 µg/mL).
For `CCCCCCCC(=O)NCCCC[C@H](NC(=O)CCCCCCC)C(=O)N[C@@H](CCCCN)C(=O)N[C@@H](CCCCN)C(=O)N[C@@H](Cc1c[nH]c2ccccc12)C(=O)N[C@@H](Cc1c[nH]c2ccccc12)C(N)=O` (Octanoyl-K(Octanoyl)KKWW-NH2), the Activity (Staphylococcus aureus [1]) was “Active”, the Activity (Staphylococcus aureus [2]) was “Active” and the Activity (Staphylococcus aureus [3]) was “Active”. For the same compound, the Activity (Staphylococcus aureus [4]) was “Active”, the Activity [5] was “Toxic” and the MIC (Escherichia coli [6]) was 8 µM (≈ 8.21 µg/mL). The Activity (Cell membrane [7]) was “Active”, the Activity (Staphylococcus aureus [40]) was “Active” and the Activity (Staphylococcus aureus [8]) was “Active”. The Activity (Staphylococcus aureus [9]) was “Active”, the Activity (Cell membrane [41]) was “Active” and the Activity (Escherichia coli [10]) was “Active”. For the same compound, the MIC (Staphylococcus aureus [11]) was 16 µM (≈ 16.4 µg/mL), the Activity (Klebsiella pneumoniae [12]) was “Active; Compound Showed More Pronounced Effect Compared To 30 Mins Incubation Time” and the Activity (Escherichia coli [14]) was “Active”. For the same compound, the “fractional inhibitory concentration index (FICI)” value (Staphylococcus aureus [15]) was 0.75, the Activity (Staphylococcus aureus [16]) was 100% and the Activity (Staphylococcus aureus [17]) was “Active”. The Activity (Staphylococcus aureus [18]) was “inactive”, the LD50 at 168 h [19] was 113 mg/kg and the Activity (Staphylococcus aureus [20]) was “Active”. For the same compound, the Activity (Klebsiella pneumoniae [21]) was 1.66 10^4CFU/mg, the “fold change (FC)” value (Escherichia coli [22]) was 2 and the “fold change (FC)” value (Staphylococcus aureus [23]) was 2. For the same compound, the Activity (Staphylococcus aureus [24]) was “Active”, the MIC (Staphylococcus aureus [25]) was 8 µM (≈ 8.21 µg/mL) and the MIC (Acinetobacter baumannii [26]) was 16 µM (≈ 16.4 µg/mL). The MIC (Klebsiella pneumoniae [27]) was 16 µM (≈ 16.4 µg/mL), the MIC [28] was 8 µM (≈ 8.21 µg/mL) and the “fractional inhibitory concentration index (FICI)” value (Staphylococcus aureus [29]) was 0.312. The Activity (Staphylococcus aureus [30]) was “Active”, the Activity (Klebsiella pneumoniae [31]) was “Active” and the MIC (Acinetobacter baumannii [32]) was 8 µM (≈ 8.21 µg/mL). For the same compound, the Activity (Klebsiella pneumoniae [33]) was “Active; Compound Showed More Pronounced Effect Compared To 30 Mins Incubation Time”, the Activity (Cell membrane [34]) was “Active; Compound Showed Pronounced Effect Than Quality Control Polymyxin B” and the Activity (Klebsiella pneumoniae [36]) was “Active; Compound Showed More Pronounced Effect Compared To 30 Mins Incubation Time”. The “fractional inhibitory concentration index (FICI)” value (Staphylococcus aureus [38]) was 0.5 and the MIC (Escherichia coli [39]) was 8 µM (≈ 8.21 µg/mL).

Reference: ChEMBL document CHEMBL6114980, “Single or double lipid-modified ultra-short antimicrobial peptides for treating infections caused by resistant bacteria” (Eur J Med Chem, 2025)
